Results reported in patent US11111214B2 (priority 2013, dated 2021).

How the values were obtained:
[1] = target: T1, recombinant human kappa (KOR) opioid receptor (Homo sapiens, UniProt P41145); assay: biochemical; format: binding
T1 construct: expressed in transfected cells; host or cells: CHO-K1 cell membranes

[2] = target: T2, recombinant human mu (MOR) opioid receptor (Homo sapiens, UniProt P35372); assay: biochemical; format: binding; conditions: for inhibition at 10 µM: read-out: Mu receptor % inhibition at single concentration, % inhibition @ 10 μM
T2 construct: expressed in transfected cells; host or cells: CHO-K1 cell membranes

[3] = target: T3, KOR (kappa opioid receptor) (Homo sapiens, UniProt P41145); assay: cell-based
T3 construct: expressed in transfected cells; host or cells: CHO-K1 cells stably expressing KOR
T3 sequence (P41145 whole entry): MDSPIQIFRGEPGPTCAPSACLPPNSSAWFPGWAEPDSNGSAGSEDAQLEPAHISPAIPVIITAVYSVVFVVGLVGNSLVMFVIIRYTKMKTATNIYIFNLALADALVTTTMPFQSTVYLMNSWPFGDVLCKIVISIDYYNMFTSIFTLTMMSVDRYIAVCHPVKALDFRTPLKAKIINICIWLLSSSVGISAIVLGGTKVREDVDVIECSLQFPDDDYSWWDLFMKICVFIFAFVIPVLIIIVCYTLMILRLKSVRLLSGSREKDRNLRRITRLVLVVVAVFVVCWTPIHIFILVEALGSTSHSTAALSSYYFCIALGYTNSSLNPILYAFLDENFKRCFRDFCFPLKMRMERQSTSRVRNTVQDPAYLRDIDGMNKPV

T2 sequence (P35372 whole entry): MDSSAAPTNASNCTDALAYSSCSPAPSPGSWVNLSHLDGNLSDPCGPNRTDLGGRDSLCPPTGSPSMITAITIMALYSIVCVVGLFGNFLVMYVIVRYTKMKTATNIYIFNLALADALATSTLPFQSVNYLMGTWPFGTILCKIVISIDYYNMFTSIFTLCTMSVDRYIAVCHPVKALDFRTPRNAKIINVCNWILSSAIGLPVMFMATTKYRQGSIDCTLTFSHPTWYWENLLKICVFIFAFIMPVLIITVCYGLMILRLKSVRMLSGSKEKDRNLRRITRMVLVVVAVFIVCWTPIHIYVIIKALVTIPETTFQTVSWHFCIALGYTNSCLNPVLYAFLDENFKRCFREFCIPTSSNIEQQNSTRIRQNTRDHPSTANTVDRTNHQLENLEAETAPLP
T1 sequence (P41145 whole entry): as the sequence (P41145 whole entry) above

SMILES | IC50 [1] | Ki [1] | IC50 [2] | inhibition at 10 µM [2] | EC50 [3]
COCCOCCOCCOCCOCCO[C@H]1CCN(C[C@H](c2ccccc2)N(C)C(=O)Cc2ccc(Cl)c(Cl)c2)C1 [compound 7, 2-(3,4-Dichlorophenyl)-N-methyl-N-{(1S)-2-[(3S)-3-(2,5,8,11,14-pentaoxahexadecan-16-yloxy)pyrrolidin-1-yl]-1-phenylethyl}acetamide] | 298 nM | 68.8 nM | 15600 nM | 68.6% | 9 nM
COCCOCCOCCOCCOCCO[C@H]1CCN(C[C@H](c2ccccc2)N(C)C(=O)CNc2ccccc2)C1 [compound 8, N-Methyl-N-{(1S)-2-[(3S)-3-(2,5,8,11,14-pentaoxahexadecan-16-yloxy)pyrrolidin-1-yl]-1-phenylethyl}-N^2-phenylglycinamide] | 1480 nM | 342 nM |  | 47.5% | 74.7 nM
COCCOCCOCCOCCOCCO[C@H]1CCN(C[C@H](c2ccccc2)N(C)C(=O)C(c2ccccc2)c2ccccc2)C1 [compound 9, N-Methyl-N-{(1S)-2-[(3S)-3-(2,5,8,11,14-pentaoxahexadecan-16-yloxy)pyrrolidin-1-yl]-1-phenylethyl}-2,2-diphenylacetamide] | 8970 nM | 2070 nM |  | 36.9% | 178 nM
COCCOCC(=O)Nc1cccc([C@@H](CN2CC[C@H](O)C2)N(C)C(=O)C(c2ccccc2)c2ccccc2)c1 [compound 11, N-[(1S)-2-[(3S)-3-Hydroxypyrrolidin-1-yl]-1-(3-{[(2-methoxyethoxy)acetyl]amino}phenyl)ethyl]-N-methyl-2,2-diphenylacetamide] | 58.1 nM | 13.4 nM |  | 45.2% | 5.02 nM
COCCOCCOCCOCCOCCOCC(=O)Nc1cccc([C@@H](CN2CCCC2)N(C)C(=O)C(c2ccccc2)c2ccccc2)c1 [compound 12, N-{3-[(1S)-1-[(Diphenylacetyl)(methyl)amino]-2-(pyrrolidin-1-yl)ethyl]phenyl}-2,5,8,11,14,17-hexaoxanonadecan-19-amide] | 849 nM | 196 nM | 53300 nM | 46.5% | 36.1 nM
COCCOCCOCCOCCOCCOc1ccc(CC(=O)N(C)[C@H](CN2CCCC2)c2ccccc2)cc1 [compound 13, N-Methyl-2-[4-(2,5,8, 11, 14-pentaoxahexadecan-16-yloxy)phenyl]-N-[(1S)-1-phenyl-2-(pyrrolidin-1-yl)ethyl]acetamide] | 1320 nM | 305 nM |  | 69.9% | 
CN(C(=O)Cc1ccc(Cl)c(Cl)c1)[C@H](CN1CCCC1)c1cccc(NS(C)(=O)=O)c1 [compound 14, 2-(3,4-dichlorophenyl)-N-methyl-N-[(1S)-1-{3-[(methylsulfonyl)amino]phenyl}-2-(pyrrolidin-1-yl)ethyl]acetamide] | 0.34 nM | 0.08 nM |  | 99.3% | 0.05 nM
COCCOCCOCCOCCOCCNC(=O)Nc1cccc([C@@H](CN2CCCC2)N(C)C(=O)Cc2ccc(Cl)c(Cl)c2)c1 [compound 15, 2-(3,4-dichlorophenyl)-N-methyl-N-[(1S)-1-{3-[(2,5,8,11,14-pentaoxahexadecan-16-ylcarbamoyl)amino]phenyl}-2-(pyrrolidin-1-yl)ethyl]acetamide] | 2.33 nM | 0.54 nM |  | 84.1% | 0.42 nM
COCCOCCOCCOCCOCCNC(=O)Nc1cccc([C@@H](CN2CCCC2)N(C)C(=O)C(c2ccc(Cl)cc2)c2ccc(Cl)cc2)c1 [compound 16, 2,2-Bis(4-chlorophenyl)-N-methyl-N-[(1S)-1-{3-[(2,5,8,11,14-pentaoxahexadecan-16-ylcarbamoyl)amino]phenyl}-2-(pyrrolidin-1-yl)ethyl]acetamide] | 62.7 nM | 14.5 nM |  | 27.1% | 15.1 nM
COCCOCCOCCO[C@H]1CCN(C[C@H](c2cccc(NS(C)(=O)=O)c2)N(C)C(=O)Cc2ccc(Cl)c(Cl)c2)C1 [compound 17, 2-(3,4-dichlorophenyl)-N-[(1S)-2-[(3S)-3-{2-[2-(2-methoxyethoxy)ethoxy]ethoxy}pyrrolidin-1-yl]-1-{3-[(methylsulfonyl)amino]phenyl}ethyl]-N-methylacetamide] | 1570 nM | 362 nM |  | 81.9% | 67.3 nM
COCCS(=O)(=O)Nc1cccc([C@@H](CN2CCCC2)N(C)C(=O)Cc2ccc(Cl)c(Cl)c2)c1 [compound 18, 2-(3,4-dichlorophenyl)-N-[(1S)-1-(3-{[(2-methoxyethyl)sulfonyl]amino}phenyl)-2-(pyrrolidin-1-yl)ethyl]-N-methylacetamide] | 0.57 nM | 0.13 nM |  | 97.8% | 0.09 nM
COCCOCCS(=O)(=O)Nc1cccc([C@@H](CN2CCCC2)N(C)C(=O)Cc2ccc(Cl)c(Cl)c2)c1 [compound 20, 2-(3,4-dichlorophenyl)-N-[(1S)-1-[3-({[2-(2-methoxyethoxy)ethyl]sulfonyl}amino)phenyl]-2-(pyrrolidin-1-yl)ethyl]-N-methylacetamide] | 0.6 nM | 0.14 nM |  | 97.1% | 0.15 nM
CCCCOCCOCCOCCS(=O)(=O)Nc1cccc([C@@H](CN2CCCC2)N(C)C(=O)Cc2ccc(Cl)c(Cl)c2)c1 [compound 21, N-[(1S)-1-{3-[({2-[2-(2-butoxyethoxy)ethoxy]ethyl}sulfonyl)amino]phenyl}-2-(pyrrolidin-1-yl)ethyl]-2-(3,4-dichlorophenyl)-N-methylacetamide] | 0.18 nM | 0.04 nM |  | 96.5% | 0.2 nM
CN(C(=O)Cc1ccc(Cl)c(Cl)c1)[C@H](CN1CCCC1)c1cccc(NS(=O)(=O)C2CS(=O)(=O)CC2O)c1 (stereo partly drawn) [compound 22, 2-(3,4-dichlorophenyl)-N-[(1S)-1-(3-{[(4-hydroxy-1,1-dioxidotetrahydrothiophen-3-yl)sulfonyl]amino}phenyl)-2-(pyrrolidin-1-yl)ethyl]-N-methylacetamide] | 0.32 nM | 0.07 nM |  | 90.2% | 0.03 nM
CN(C(=O)Cc1ccc(Cl)c(Cl)c1)[C@H](CN1CC[C@H](OCC(=O)O)C1)c1ccccc1 [compound 24, ({(3S)-1-[(2S)-2-{[(3,4-dichlorophenyl)acetyl](methyl)amino}-2-phenylethyl]pyrrolidin-3-yl}oxy)acetic Acid] | 3590 nM | 468 nM | 158000 nM | -7.9% | 265 nM
CN(C(=O)Cc1ccc(Cl)c(Cl)c1)[C@H](CN1CC[C@H](OCCO)C1)c1ccccc1 [compound 25, 2-(3,4-Dichlorophenyl)-N-{(1S)-2-[(3S)-3-(2-hydroxyethoxy)pyrrolidin-1-yl]-1-phenylethyl}-N-methylacetamide] | 31.8 nM | 4.15 nM | 4510 nM | 57.5% | 4.07 nM
CN(C(=O)Cc1ccc(Cl)c(Cl)c1)[C@H](CN1CC[C@H](OCCOCCO)C1)c1ccccc1 [compound 26, 2-(3,4-Dichlorophenyl)-N-[(1S)-2-{(3S)-3-[2-(2-hydroxyethoxy)ethoxy]pyrrolidin-1-yl}-1-phenylethyl]-N-methylacetamide] | 1130 nM | 148 nM | 38700 nM | 35.1% | 14.3 nM
CN(C(=O)Cc1ccc(Cl)c(Cl)c1)[C@H](CN1CC[C@H](OCCOCCOCCO)C1)c1ccccc1 [compound 27, 2-(3,4-Dichlorophenyl)-N-{(1S)-2-[(3S)-3-{2-[2-(2-hydroxyethoxy)ethoxy]ethoxy}pyrrolidin-1-yl]-1-phenylethyl}-N-methylacetamide] | 106 nM | 13.8 nM | 9220 nM | 50.4% | 4.38 nM
CN(C(=O)Cc1ccc(Cl)c(Cl)c1)[C@H](CN1CC[C@H](OCCOCC(=O)O)C1)c1ccccc1 [compound 28, [2-({(3S)-1-[(2S)-2-{[(3,4-Dichlorophenyl)acetyl](methyl)amino}-2-phenylethyl]pyrrolidin-3-yl}oxy)ethoxy]acetic Acid] | 2100 nM | 274 nM | 73400 nM | 4.9% | 148 nM
CN(C(=O)Cc1ccc(Cl)c(Cl)c1)[C@H](CN1CC[C@H](OCCOCCOCC(=O)O)C1)c1ccccc1 [compound 29, {2-[2-({(3S)-1-[(2S)-2-{[(3,4-Dichlorophenyl)acetyl](methyl)amino}-2-phenylethyl]pyrrolidin-3-yl}oxy)ethoxy]ethoxy}acetic Acid] | 580 nM | 111 nM | 25900 nM | 30.5% | 41.2 nM
CCCCOCCOCCOCCS(=O)(=O)Nc1cccc([C@@H](CN2CCCC2)N(C)C(=O)Cc2ccccn2)c1 [compound 30, N-[(1S)-1-{3-[({2-[2-(2-Butoxyethoxy)ethoxy]ethyl}sulfonyl)amino]phenyl}-2-(pyrrolidin-1-yl)ethyl]-N-methyl-2-(pyridin-2-yl)acetamide] | 464 nM | 60.5 nM |  | 85.5% | 38.9 nM
COCCOCCOCCO[C@H]1CCN(C[C@H](c2ccc(C(F)(F)F)cc2)N(C)C(=O)Cc2ccc(Cl)c(Cl)c2)C1 [compound 33, 2-(3,4-Dichlorophenyl)-N-{(1S)-2-[(3S)-3-{2-[2-(2-methoxyethoxy)ethoxy]ethoxy}pyrrolidin-1-yl]-1-[4-(trifluoromethyl)phenyl]ethyl}-N-methylacetamide] | 1240 nM | 285 nM |  | 84.1% | 
COCCOCCOCCOCCOCCO[C@H]1CCN(C[C@H](c2ccccc2)N(C)C(=O)Cc2ccccc2[N+](=O)[O-])C1 [compound 41, N—((S)-2-((S)-3-(2,5,8,11,14-pentaoxahexadecan-16-yloxy)pyrrolidin-1-yl)-1-phenylethyl)-N-methyl-2-(2-nitrophenyl)acetamide] | 5200 nM | 1200 nM |  | 20.5% | 
